Data on four compounds can be found in paper PMC5569017, “Development of a novel immunoassay to detect interactions with the transactivation domain of p53: application to screening of new drugs” (Scientific Reports, 2017).

One test deals with p53/MDM2 interaction. Conditions: cited from earlier work.
For another test, the target named is T1, p53-MDM2 interaction (Homo sapiens, UniProt Q00987).
T1 construct: made in house; host or cells: MDM2-GST: Escherichia coli BL21 (DE3), crude extract; p53-His: HEK293T cells transfected with pEnter-p53, crude lysate
Briefly: AlphaLISA inhibitor screening assay, p53-MDM2 (cellular extracts with p53-His and MDM2-GST). The class given is biochemical. The settings on record: 33.3 μg/well MDM2-GST extract, Fig. 4; for concentration above which the AlphaLISA signal reached a plateau: dose-response, 1:10 serial dilutions.

Another test deals with MDM2. Further details: method as in PMID 27764791. Conditions: read-out: Ki, MDM2 antagonist; cited from earlier work.

Like-named read-outs stand apart in the source and are kept apart here.

T1 sequence (Q00987 whole entry): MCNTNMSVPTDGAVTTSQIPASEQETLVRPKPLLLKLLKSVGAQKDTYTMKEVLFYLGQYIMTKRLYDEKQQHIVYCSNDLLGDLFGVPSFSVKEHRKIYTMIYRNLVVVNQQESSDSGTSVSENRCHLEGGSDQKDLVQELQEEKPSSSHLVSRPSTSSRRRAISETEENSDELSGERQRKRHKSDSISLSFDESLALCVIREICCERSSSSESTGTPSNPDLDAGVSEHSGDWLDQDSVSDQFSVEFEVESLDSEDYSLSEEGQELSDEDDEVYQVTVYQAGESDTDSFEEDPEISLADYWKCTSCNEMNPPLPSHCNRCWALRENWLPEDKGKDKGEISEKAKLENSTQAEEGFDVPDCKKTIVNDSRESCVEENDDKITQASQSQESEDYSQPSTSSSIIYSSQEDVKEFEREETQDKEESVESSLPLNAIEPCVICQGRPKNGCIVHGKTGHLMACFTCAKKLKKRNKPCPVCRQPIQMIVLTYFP

As for `COc1cc(C(=O)O)ccc1NC(=O)[C@@H]1N[C@@H](CC(C)(C)C)[C@](C#N)(c2ccc(Cl)cc2F)[C@H]1c1cccc(Cl)c1F` [Idasanutlin], the IC50 with p53/MDM2 interaction (read-out: IC50, p53-MDM2 inhibitor) was 6 nM. At p53-MDM2 interaction (serial dilutions starting with 20 μM), the “course of AlphaLISA response signal with increasing inhibitor dose” value was “continued to rise rapidly”.

Regarding `CC(C)(C)C[C@@H]1N[C@@H](C(=O)N[C@H]2CC[C@H](O)CC2)[C@H](c2cccc(Cl)c2F)[C@]12C(=O)Nc1cc(Cl)ccc12` [MI-773], the Ki (as a rule, the equilibrium dissociation constant of an inhibitor or competing ligand from its target) on MDM2 is 0.88 nM. Further, at p53-MDM2 interaction, the “concentration above which the AlphaLISA signal reached a plateau” value was “exceeded 1 μΜ”.

Take `CCOc1cc(C(C)(C)C)ccc1C1=N[C@@](C)(c2ccc(Cl)cc2)[C@@](C)(c2ccc(Cl)cc2)N1C(=O)N1CCN(CCCS(C)(=O)=O)CC1` [RG-7112]: on p53-MDM2 interaction, the “concentration above which the AlphaLISA signal reached a plateau” value is on record as “exceeded 1 μΜ”.

`COc1ccc(C2=N[C@@H](c3ccc(Cl)cc3)[C@@H](c3ccc(Cl)cc3)N2C(=O)N2CCNC(=O)C2)c(OC(C)C)c1` [Nutlin-3a]: the IC50 in the test on p53/MDM2 interaction (cell-free assay, read-out: IC50, inhibition of the p53/MDM2 interaction) is […].
